Reference: patent US6696404B1, “Antibacterial composition having xanthorrizol” (LG Household & Healthcare, priority 1999, dated 2004)
In brackets after ≈: the same amount, converted by molar mass.

Experiments:
Streptococcus mutans [1] = assay: Minimum inhibitory concentration of active fractions; format: cell-based
Protocol: The crude extract, prepared in Example 1-1 was applied to a silica gel column chromatography: the crude extract was applied to a column chromatography(5×43 cm) filled with silica gel(Merck, U.S.A.) of 70 to 230 mesh, and eluted with a mixed gradient of hexane and ethylacetate (10:1→3:1→1:1). Then, thin layer chromatography(TLC) was performed with the active fractions obtained in the course of chromatographic procedure to give 8 different fractions(fractions I to VIII ) with similar retention on the TLC plate. Antibacterial activity of the fractions was measured in terms of minimum inhibitory concentration(MIC), and compared to that of vancomycin.

[2] = Antibacterial activity of acetylated single compound; format: cell-based; details: acetylated form
Protocol: Since fraction II had some impurities, acetylation of the fraction was carried out to change its polarity as a procedure to obtain a single compound with antibacterial activity: 0.5 g of fraction II was dissolved in 5 ml pyridine, added with 5 ml of acetic anhydride in a drop-wise manner at ice-cold temperature, and stirred at room temperature for more than 15 hours. The reactant was subjected to partition extraction with 100 ml of ice-cold water once, and subsequently 100 ml of ethylacetate twice. The ethylacetate phase thus obtained was washed with 5% HCl, NaHCO3 and NaCl, dehydrated with anhydrous MgSO4, filtered and condensed under a reduced pressure. The resultant was finally applied onto a silica gel column(4.7×50 cm), and eluted with a solvent mixture of hexane and ethylacetate(15:1, v/v) to give an acetylated single compound. […] Then, 2 ml of 5% KOH was added to the compound, reacted with stirring for more than 2 hours, and neutralized using cation exchange resin(DOWEX50WX4-400), followed by filtration and condensation to give a single isolated compound. Thereafter, its molecular weight was measured with EI-MS(VG Platform II, FISIONS, 15 eV), and chemical identification was conducted using analytical instruments of ^1H-NMR, ^13C-NMR(400 MHz, CDCl3) and IR(Perkin Elmer spectrum I , DTGS detector). […]

Streptococcus mutans [3] = assay: Thermal stability: well diffusion analysis after heating; format: cell-based; details: 0.1% in DMSO heated 30 minutes
Protocol: Xanthorrizol was dissolved in DMSO to prepare specimens with a concentration of 0.1%. The specimens were heated for 30 minutes at the temperature of 60° C., 70° C., 80° C., 90° C., 100° C. and 121° C., respectively. Then, antibacterial activity against Streptococcus mutans was determined for each specimen by well diffusion analysis, whose results are shown in Table 13.

human skin = assay: Skin safety patch test; format: in vivo
Propionibacterium acnes = assay: Viable cell count after xanthorrizol treatment; format: cell-based; details: xanthorrizol 0.002%; 37° C.
Protocol: To measure the antibacterial activity of xanthorrizol, it was dissolved in DMSO to give specimens with a concentration of 0.001%, 0.0015% and 0.002%, respectively, and incubated with test microorganisms([…] CFU/ml) at 37° C. for 1, 2, 5, and 10 hours, respectively. Then, they were subjected to serial 10-fold dilution, incubated with an acne-causing pathogen, Propionibacterium acnes for 24 to 48 hours, and counted the viable cell number of the pathogen. FIG. 2 is a graph showing antibacterial activity of xanthorrizol in terms of viable cell numbers, where ♦ represents DMSO, control; ▪, 0.001% crude extract; ▾, 0.0015% crude extract; x, 0.002% crude extract, respectively.

[4] = tested on: Streptococcus salivarius ATCC 9758; assay: MIC by 2-fold dilution; format: cell-based; details: ATCC9758, 2×10^5 CFU/ml, 30 to 37° C., more than 24 hours
Protocol: (§1) In addition, minimum inhibitory concentration(MIC, μg/ml) for various microorganisms was determined by performing 2-fold dilution: first, 1 ml of medium was taken into each tube, and 1 ml of xanthorrizol(0.05% in DMSO) was added to only one tube to make 2-fold dilution. Then, serial 2-fold dilution was further carried out for the rest of the tubes, starting from the tube containing xanthorrizol. 100 μl of microorganism was added into each tube prepared by the 2-fold dilution to contain a final cell number of 2×10^5 CFU/ml, and incubated at 30 to 37° C. for more than 24 hours to determine minimum inhibitory concentrations for various test microorganisms(see: Table 12).

[5] = tested on: Streptomyces bikiniensis ATCC 11062; assay: MIC by 2-fold dilution; format: cell-based; details: ATCC11062, 2×10^5 CFU/ml, 30 to 37° C., more than 24 hours
Protocol: as §1

[6] = tested on: Penicilium chrysogenum IFO 5472; assay: MIC by 2-fold dilution; format: cell-based; details: 2×10^5 CFU/ml; 30 to 37° C., more than 24 hours
Protocol: as §1

[7] = tested on: Candida glabrata IFO 0622; assay: MIC by 2-fold dilution; format: cell-based; details: Nakaseomyces glabratus, IFO0622; 2×10^5 CFU/ml; 30 to 37° C., more than 24 hours
Protocol: as §1

[8] = tested on: Lactobacillus aciophilus ATCC 4356; assay: MIC by 2-fold dilution; format: cell-based; details: ATCC4356, 2×10^5 CFU/ml, 30 to 37° C., more than 24 hours
Protocol: as §1

[9] = tested on: Penicilium citrinum IFO 6352; assay: MIC by 2-fold dilution; format: cell-based; details: 2×10^5 CFU/ml; 30 to 37° C., more than 24 hours
Protocol: as §1

[10] = tested on: Enterococcus faecalis ATCC 19433; assay: MIC by 2-fold dilution; format: cell-based; details: ATCC19433, 2×10^5 CFU/ml, 30 to 37° C., more than 24 hours
Protocol: as §1

[11] = tested on: Staphylococcus aureus ATCC 12600; assay: MIC by 2-fold dilution; format: cell-based; details: ATCC12600, 2×10^5 CFU/ml, 30 to 37° C., more than 24 hours
Protocol: as §1

[12] = tested on: Propionibacterium acnes ATCC 6919; assay: MIC by 2-fold dilution; format: cell-based; details: Cutibacterium acnes, ATCC6919; 2×10^5 CFU/ml; 30 to 37° C., more than 24 hours
Protocol: as §1

[13] = tested on: Streptococcus mutans ATCC 25175; assay: MIC by 2-fold dilution; format: cell-based; details: ATCC25175, 2×10^5 CFU/ml, 30 to 37° C., more than 24 hours
Protocol: as §1

[14] = tested on: Streptococcus sobrinus ATCC 27351; assay: MIC by 2-fold dilution; format: cell-based; details: ATCC27351, 2×10^5 CFU/ml, 30 to 37° C., more than 24 hours
Protocol: as §1

[15] = tested on: Lactobacillus casei ATCC 4646; assay: MIC by 2-fold dilution; format: cell-based; details: Lacticaseibacillus casei, ATCC4646; 2×10^5 CFU/ml; 30 to 37° C., more than 24 hours
Protocol: as §1

[16] = tested on: Porphyromonas gingivalis W 50; assay: MIC by 2-fold dilution; format: cell-based; details: W50, 2×10^5 CFU/ml, 30 to 37° C., more than 24 hours
Protocol: as §1

[17] = tested on: Actinomyces viscosus ATCC 15988; assay: MIC by 2-fold dilution; format: cell-based; details: ATCC15988, 2×10^5 CFU/ml, 30 to 37° C., more than 24 hours
Protocol: as §1

[18] = tested on: Bifidobacterium bifidum ATCC 29521; assay: MIC by 2-fold dilution; format: cell-based; details: ATCC29521, 2×10^5 CFU/ml, 30 to 37° C., more than 24 hours
Protocol: as §1

[19] = tested on: Streptococcus sanguis ATCC 35105; assay: MIC by 2-fold dilution; format: cell-based; details: ATCC35105, 2×10^5 CFU/ml, 30 to 37° C., more than 24 hours
Protocol: as §1

[20] = tested on: Salmonella typhimurium IFO 12529; assay: MIC by 2-fold dilution; format: cell-based; details: Salmonella enterica; 2×10^5 CFU/ml; 30 to 37° C., more than 24 hours
Protocol: as §1

[21] = tested on: Cladosporium cladosporioides IFO 6348; assay: MIC by 2-fold dilution; format: cell-based; details: IFO6348, 2×10^5 CFU/ml, 30 to 37° C., more than 24 hours
Protocol: as §1

[22] = tested on: Pityrosporum pacchydermatis ATCC 14522; assay: MIC by 2-fold dilution; format: cell-based; details: 2×10^5 CFU/ml; 30 to 37° C., more than 24 hours
Protocol: as §1

[23] = tested on: Candida albicans ATCC 10231; assay: MIC by 2-fold dilution; format: cell-based; details: ATCC10231, 2×10^5 CFU/ml, 30 to 37° C., more than 24 hours
Protocol: as §1

[24] = tested on: Saccharomyces cerevisiae ATCC 9763; assay: MIC by 2-fold dilution; format: cell-based; details: ATCC9763, 2×10^5 CFU/ml, 30 to 37° C., more than 24 hours
Protocol: as §1

Streptococcus mutans [25] = assay: Viable cell count after xanthorrizol treatment; format: cell-based; details: xanthorrizol 0.0004%(4 μg/ml); 37° C.
Protocol: Xanthorrizol was also tested for Streptococcus mutans in a similar manner as described above: xanthorrizol was dissolved in DMSO to give specimens with a concentration of 0.0002%, 0.0004% and 0.0008%, respectively. Then, the specimens were incubated with the microorganism at 37° C. for 1, 2, 5 and 10 minutes, respectively, and subjected to serial 10-fold dilution. After the incubation with the pathogen, viable cell number for Streptococcus mutans was counted. FIG. 3 is a graph showing antibacterial activity of xanthorrizol against Streptococcus mutans in terms of viable cell number, where ♦ represents DMSO, control; ▪, 0.0002% crude extract; Δ, 0.0004% crude extract; x, 0.0008% crude extract, respectively.

Streptococcus mutans [26] = assay: Efflux of intracellular macromolecules and ions after xanthorrizol treatment; format: cell-based; details: 5 and 10 μg/ml xanthorrizol; FIGS. 4a, 4b, 5a, 5b
Protocol: Streptococcus mutans was treated with 5 and 10 μg/ml of xanthorrizol for 1, 2, 5 and 10 minutes, respectively, to examine the efflux of intracellular macromolecules and ions by the xanthorrizol-mediated cell damage. FIGS. 4a and 4b are graphs showing the efflux of neucleic acid and protein from Streptococcus mutans after xanthorrizol treatment, and FIGS. 5a and 5b, calcium efflux and magnesium efflux, where ♦ represents 0.1% DMSO, control; ▪, Streptococcus mutans treated with 5 μg/ml xanthorrizol; •, Streptococcus mutans treated with 10 μg/ml xanthorrizol, respectively.

the pathogens = assay: Change in cell morphology (TEM) after xanthorrizol treatment; format: cell-based; details: 10 μg/ml xanthorrizol for 30 minutes
Protocol: To assess the extent of xanthorrizol-mediated cell damage, 10 μg/ml xanthorrizol was treated to the pathogens for 30 minutes. […] Further, it was assumed that through the efflux of intracellular macromolecules and ions, the permeability of cell wall is increased to accelerate the efflux of intracellular components, which in turn inactivates cellular enzymes and causes the malfunction of cell wall.

## CN[C@H](CC(C)C)C(=O)N[C@H]1C(=O)N[C@@H](CC(N)=O)C(=O)N[C@H]2C(=O)N[C@H]3C(=O)N[C@H](C(=O)N[C@H](C(=O)O)c4cc(O)cc(O)c4-c4cc3ccc4O)[C@H](O)c3ccc(c(Cl)c3)Oc3cc2cc(c3O[C@@H]2O[C@H](CO)[C@@H](O)[C@H](O)[C@H]2O[C@H]2C[C@](C)(N)[C@H](O)[C@H](C)O2)Oc2ccc(cc2Cl)[C@H]1O [Vancomycin, vancomycin]
Streptococcus mutans [1]
  MIC: 1 µg/mL (≈ 0.69 µM)

## CC(=O)Oc1cc(C(C)CCC=C(C)C)ccc1C (stereo not shown) [acetylated single compound]
[2]
  antibacterial activity: no antibacterial activity

## CC(C)=CCC[C@@H](C)c1ccc(C)c(O)c1 [xanthorrizol, 1,3,5,10-bisabolatetraen-3-ol]
Streptococcus mutans [3]; Treatment Temp. 60 ° C.
  Diameter of Clear Zone: 17 mm
Streptococcus mutans [3]; Treatment Temp. 70 ° C.
  Diameter of Clear Zone: 16 mm
Streptococcus mutans [3]; Treatment Temp. 80 ° C.
  Diameter of Clear Zone: 17 mm
Streptococcus mutans [3]; Treatment Temp. 90 ° C.
  Diameter of Clear Zone: 17 mm
Streptococcus mutans [3]; Treatment Temp. 100 ° C.
  Diameter of Clear Zone: 18 mm
Streptococcus mutans [3]; Treatment Temp. 121 ° C.
  Diameter of Clear Zone: 17 mm
Human skin
  adverse effects such as erythema, scarring or edema on skin: do not cause adverse effects
Propionibacterium acnes
  Eradication of the microorganism (viable cell number, FIG. 2): eradicated almost completely in one hour
[4]
  MIC: 4 µg/mL (≈ 18.3 µM)
[5]
  MIC: 32 µg/mL (≈ 147 µM)
[6]
  MIC: 125 µg/mL (≈ 573 µM)
[7]
  MIC: 125 µg/mL (≈ 573 µM)
[8]
  MIC: 500 µg/mL (≈ 2290 µM)
[9]
  MIC: 250 µg/mL (≈ 1150 µM)
[10]
  MIC: 16 µg/mL (≈ 73.3 µM)
[11]
  MIC: 62.5 µg/mL (≈ 286 µM)
[12]
  MIC: 16 µg/mL (≈ 73.3 µM)
[13]
  MIC: 2 µg/mL (≈ 9.16 µM)
[14]
  MIC: 4 µg/mL (≈ 18.3 µM)
[15]
  MIC: 250 µg/mL (≈ 1150 µM)
[16]
  MIC: 32 µg/mL (≈ 147 µM)
[17]
  MIC: 16 µg/mL (≈ 73.3 µM)
[18]
  MIC: 250 µg/mL (≈ 1150 µM)
[19]
  MIC: 4 µg/mL (≈ 18.3 µM)
[20]
  MIC: 62.5 µg/mL (≈ 286 µM)
[21]
  MIC: 500 µg/mL (≈ 2290 µM)
[22]
  MIC: 125 µg/mL (≈ 573 µM)
[23]
  MIC: 125 µg/mL (≈ 573 µM)
[24]
  MIC: 250 µg/mL (≈ 1150 µM)
Streptococcus mutans [25]
  Eradication of the microorganism (viable cell number, FIG. 3): eradicated almost completely in one minute
Streptococcus mutans [26]
  efflux of protein, neucleic acid and ion: increased dramatically in 5 minutes
The pathogens
  cell morphology (TEM): cell wall expansion was detected, followed by cell disruption
